Data as given in US6914045B2, “Glycopeptide antibiotics” (Wyeth Holdings Corporation, priority 2001, dated 2005).
In brackets after ≈: the same amount, converted by molar mass. Numbered stars: 1 amine (or outer) side, 2 acyl side, 3 side chain; on linkers, the order of the positions; unused ones are H or OH. Square brackets hold non-standard residues; d marks the D form. Peptide text beside a SMILES is read from it. * marks the point of attachment. ξ: configuration not given here. X1 = N=C1NCC(C(O)C(N[*:1])C(=O)[*:2])N1C1OC(CO)C(O)C(O)C1O; ξEnduracididine(βξ-OH,4'ξ) = N=C1NCC(C(O)C(N)C(=O)O)N1; X2 = OCC1OC(OC2C(CO)OC(*)C(O)C2O)C(O)C(O)C1O; Diphenylacetyl = O=C(C(c1ccccc1)c1ccccc1)*; ξPhe(βξ-Me) = CC(c1ccccc1)C(N)C(=O)O

Assays:
Experiment in all cases: in vitro antibacterial evaluation, MIC by broth dilution
Format in all cases: cell-based
Escherichia coli = conditions: 18 hours at 35° C.
Summary of the method: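 Broth dilution MIC per NCCLS M7-A2 in Mueller-Hinton II medium, inoculum 5×10^5 CFU/mL, antibiotic range 64-0.06 μg/mL. MIC taken as lowest concentration inhibiting growth.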

Streptococcus sp. = conditions: broth dilution, 18 hours at 35° C.
Summary of the method: (§1)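 MIC = lowest antibiotic concentration preventing visible growth; inoculum 5×10^5 CFU/mL; drug range 64-0.06 μg/mL; Muller-Hinton II […]; NCCLS M7-A2 guidance.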

Staphylococcus sp. = conditions: broth dilution, 18 hours at 35° C.
Summary of the method: as §1

Enterococcus sp. = conditions: broth dilution, 18 hours at 35° C.
Summary of the method: as §1

MIC Escherichia coli (ATCC 25922) (Escherichia coli): >128 µg/mL
MIC Streptococcus agalactiae (GC 4564) (Streptococcus sp.; Streptococcus agalactiae (GC 4564)): 32 µg/mL (≈ 21.5 µM)
MIC Streptococcus pneumoniae (GC 4565) (Streptococcus sp.; Streptococcus pneumoniae (GC 4565)): 16 µg/mL (≈ 10.7 µM)
MIC Streptococcus pyogenes (ID-3187) (Streptococcus sp.; Streptococcus pyogenes (ID-3187)): 32 µg/mL (≈ 21.5 µM)
MIC Streptococcus agalactiae (GC 4564) (Streptococcus sp.): 32 µg/mL (≈ 21.5 µM)
MIC Streptococcus pneumoniae (GC 4565) (Streptococcus sp.): 16 µg/mL (≈ 10.7 µM)
MIC Streptococcus pyogenes (ID-3187) (Streptococcus sp.): 32 µg/mL (≈ 21.5 µM)
MIC Coagulase Negative Staphylococcus (GC 4547) (Staphylococcus sp.): 128 µg/mL (≈ 85.9 µM)
MIC Coagulase Negative Staphylococcus (GC 4548) (Staphylococcus sp.): >128 µg/mL
MIC Coagulase Negative Staphylococcus (GC 4549) (Staphylococcus sp.): 64 µg/mL (≈ 43 µM)
MIC Coagulase Negative Staphylococcus (GC 4551) (Staphylococcus sp.): 128 µg/mL (≈ 85.9 µM)
MIC Coagulase Negative Staphylococcus (ID-3941) (Staphylococcus sp.): 64 µg/mL (≈ 43 µM)
MIC Staphylococcus aureus-SMITH (GC 4543) (Staphylococcus sp.): >128 µg/mL
MIC Coagulase Negative Staphylococcus (GC 4547) (Staphylococcus sp.; strain GC 4547): 128 µg/mL (≈ 85.9 µM)
MIC Coagulase Negative Staphylococcus (GC 4548) (Staphylococcus sp.; strain GC 4548): >128 µg/mL
MIC Coagulase Negative Staphylococcus (GC 4549) (Staphylococcus sp.; strain GC 4549): 64 µg/mL (≈ 43 µM)
MIC Coagulase Negative Staphylococcus (GC 4551) (Staphylococcus sp.; strain GC 4551): 128 µg/mL (≈ 85.9 µM)
MIC Coagulase Negative Staphylococcus (ID-3941) (Staphylococcus sp.; strain ID-3941): 64 µg/mL (≈ 43 µM)
MIC Staphylococcus aureus-SMITH (GC 4543) (Staphylococcus sp.; strain SMITH GC 4543): >128 µg/mL
MIC Staphylococcus aureus (ATCC 29213) (Staphylococcus sp.; strain ATCC 29213): >128 µg/mL
MIC Staphylococcus aureus (GC 1131) (Staphylococcus sp.; strain GC 1131): >128 µg/mL
MIC Staphylococcus aureus (GC 4541) (Staphylococcus sp.; strain GC 4541): 128 µg/mL (≈ 85.9 µM)
MIC Staphylococcus aureus (GC 4542) (Staphylococcus sp.; strain GC 4542): >128 µg/mL
MIC Staphylococcus aureus (GC 4544) (Staphylococcus sp.; strain GC 4544): >128 µg/mL
MIC Staphylococcus aureus (GC 4545) (Staphylococcus sp.; strain GC 4545): >128 µg/mL
MIC Enterococcus avium (GC 4558) (Enterococcus sp.; Enterococcus avium (GC 4558)): >128 µg/mL
MIC Enterococcus faecalis (ATCC 29212) (Enterococcus sp.; Enterococcus faecalis (ATCC 29212)): >128 µg/mL
MIC Enterococcus faecalis (GC 2242) (Enterococcus sp.; Enterococcus faecalis (GC 2242)): >128 µg/mL
MIC Enterococcus faecalis (GC 4552) (Enterococcus sp.; Enterococcus faecalis (GC 4552)): >128 µg/mL
MIC Enterococcus faecalis (GC 4553) (Enterococcus sp.; Enterococcus faecalis (GC 4553)): >128 µg/mL
MIC Enterococcus faecalis (GC 4554) (Enterococcus sp.; Enterococcus faecalis (GC 4554)): >128 µg/mL
MIC Enterococcus faecium (GC 2243) (Enterococcus sp.; Enterococcus faecium (GC 2243)): 128 µg/mL (≈ 85.9 µM)
MIC Enterococcus faecium (GC 4556) (Enterococcus sp.; Enterococcus faecium (GC 4556)): >128 µg/mL
MIC Enterococcus faecium (GC 4557) (Enterococcus sp.; Enterococcus faecium (GC 4557)): 32 µg/mL (≈ 21.5 µM)
MIC Enterococcus avium (GC 4558) (Enterococcus sp.): >128 µg/mL
MIC Enterococcus faecalis (ATCC 29212) (Enterococcus sp.): >128 µg/mL
MIC Enterococcus faecalis (GC 2242) (Enterococcus sp.): >128 µg/mL
MIC Enterococcus faecalis (GC 4552) (Enterococcus sp.): >128 µg/mL
MIC Enterococcus faecalis (GC 4553) (Enterococcus sp.): >128 µg/mL
MIC Enterococcus faecalis (GC 4554) (Enterococcus sp.): >128 µg/mL
MIC Enterococcus faecium (GC 2243) (Enterococcus sp.): 128 µg/mL (≈ 85.9 µM)
MIC Enterococcus faecium (GC 4556) (Enterococcus sp.): >128 µg/mL
MIC Enterococcus faecium (GC 4557) (Enterococcus sp.): 32 µg/mL (≈ 21.5 µM)
SMILES: CC(c1ccccc1)C1NC(=O)CNC(=O)C(COC(=O)C(c2ccccc2)c2ccccc2)NC(=O)C(C(O)C2CNC(=N)N2C2OC(CO)C(O)C(O)C2O)NC(=O)C(C(O)C2CNC(=N)N2)NC(=O)C(Cc2ccc(OC3OC(CO)C(OC4OC(CO)C(O)C(O)C4O)C(O)C3O)cc2)NC1=O (stereo not drawn) [Example 96a, Cyclo[glycyl-β-methylphenylalanyl-O-(4-O-hexopyranosylhexopyranosyl)tyrosyl-3-(2-iminoimidazolidin-4-yl)seryl-3-(3-hexopyranosyl-2-iminoimidazolidin-4-yl)seryl-O-(diphenylacetyl)-seryl]] (cyclo(G[ξPhe(βξ-Me)]Y(X2)[ξEnduracididine(βξ-OH,4'ξ)][X1]S(Diphenylacetyl)); configuration not given here)
MIC Staphylococcus haemolyticus (GC 4546) (Staphylococcus sp.): 128 µg/mL (≈ 85.9 µM)
MIC Staphylococcus haemolyticus (GC 4546) (Staphylococcus sp.; strain GC 4546): 128 µg/mL (≈ 85.9 µM)
